Legend:
[1] = tested on: injured hind paw; conditions: rat, in vivo; cited from earlier work
[2] = in vivo; cited from earlier work
[3] = Skin permeation with human abdominal cadaver skin and absorption estimates drawn from it; conditions: assuming 3.8 fold increase in drug delivery

| Structure (SMILES) | systemic effects following topical application [1] | half-life, rapid phase one [2] [h] | half-life, slow phase two [2] [h] | antinociception [1] | estimated increased penetration with damaged stratum corneum [3] [mg] |
| --- | --- | --- | --- | --- | --- |
| CN1CC[C@]23c4c5ccc(O)c4O[C@H]2[C@@H](O)C=C[C@H]3[C@H]1C5 [morphine] | revealed systemic effects |  |  |  |  |
| CN(C)C(=O)C(CCN1CCC(O)(c2ccc(Cl)cc2)CC1)(c1ccccc1)c1ccccc1 [loperamide, 4-[4-(4-Chlorophenyl)-4-hydroxypiperidin-1-yl]-N,N-dimethyl-2,2-diphenylbutanamide] |  | 2.3 | 23 | rapid dose-dependent antinociception | 0.057 |
